{"source": "patent US20090298786A1", "about": "“METHODS OF TREATING VIRAL INFECTIONS WITH ANTHRACYCLINE ANTIBIOTICS” (priority 2007, published 2009)", "data": [{"biological_target": "T1, HCV helicase (helicase domain of NS3 protein) (UniProt P27958)", "T1 construct": "The helicase domain of NS3 protein was expressed in a baculovirus system in HF insect cell line; fused on or other part: Histidine tag, inferred from the Talon cobalt column purification ('histidine repetitions')", "T1 sequence (P27958 1027-1657)": "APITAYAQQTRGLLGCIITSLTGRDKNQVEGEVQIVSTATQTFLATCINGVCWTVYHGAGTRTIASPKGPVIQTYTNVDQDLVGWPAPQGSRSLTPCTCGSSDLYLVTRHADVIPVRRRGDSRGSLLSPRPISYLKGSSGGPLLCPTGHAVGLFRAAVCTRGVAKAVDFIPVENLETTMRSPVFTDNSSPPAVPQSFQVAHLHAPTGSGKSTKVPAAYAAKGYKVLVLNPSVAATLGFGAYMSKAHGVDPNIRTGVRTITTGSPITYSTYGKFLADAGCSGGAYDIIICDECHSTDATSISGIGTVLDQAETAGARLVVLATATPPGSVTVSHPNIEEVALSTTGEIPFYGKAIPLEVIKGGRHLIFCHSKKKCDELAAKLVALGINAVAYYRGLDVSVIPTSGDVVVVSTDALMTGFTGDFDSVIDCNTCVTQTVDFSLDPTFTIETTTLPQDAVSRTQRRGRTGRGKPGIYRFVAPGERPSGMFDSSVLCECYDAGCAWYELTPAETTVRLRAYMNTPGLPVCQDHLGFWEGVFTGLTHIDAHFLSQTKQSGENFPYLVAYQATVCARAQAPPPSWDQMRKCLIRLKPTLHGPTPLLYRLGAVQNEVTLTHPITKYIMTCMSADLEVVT", "assay": "Fluorometric (FRET) antihelicase activity assay", "type": "biochemical, hepatitis C virus (HCV)", "details": "concentration inhibiting 50% of helicase activity; 10 nM enzyme pre-incubated 15 min with derivative, unwinding at 30° C. for 60 min", "source_text": "(§1) A reaction takes place on a 96- or 384-well microtitration plate and a course of the reaction is observed in real time.\n(§2) The helicase domain of NS3 protein was expressed in a baculovirus system in HF insect cell line.\n(§3) In this assay, FAM fluorescence is quenched by fluorescence energy transfer (FRET) to the BHQ molecule, while unwinding of double-stranded DNA structure leads to decrease of FRET phenomenon and increase of FAM fluorescence signal. The assay allows for examining a large number of samples, i.e., different helicase inhibitors at various concentrations and with many repetitions, in standardized conditions. The reaction is conducted in a microtitration plate. The reaction process is observed in real time.\n(§4) The enzyme (10 nM) was pre-incubated with the tested derivatives dissolved in DMSO (0.005 to 20 μM concentration) without ATP for 15 min at room temperature. The reaction of DNA unwinding was started by addition of ATP and was carried out at 30° C. for 60 min in a Synergy HTi (Biotek) fluorometer. […] Fluorescence was measured every 2 mins.\n(§5) The enzyme activity was calculated as the initial reaction velocity from the linear part of reaction curve (fluorescence growth as a function of time) using a linear regression method. Inhibition was calculated as comparison of activity of the helicase incubated with inhibitor to activity of the helicase incubated without inhibitor, but with a proper concentration of DMSO, expressed in percent.", "units": {"IC50": "nM"}, "values": [{"compound": "COc1cccc2c1C(=O)c1c(O)c3c(c(O)c1C2=O)CC(O)(C(C)=O)CC3OC1CC(N=CN2CCN(C)CC2)C(O)C(C)O1", "note": "(stereo not shown) [Derivative 76]", "IC50": 770}]}, {"biological_target": "T1, HCV helicase (helicase domain of NS3 protein)", "assay": "Fluorometric (FRET) antihelicase activity assay", "type": "biochemical, hepatitis C virus (HCV)", "details": "concentration inhibiting 50% of helicase activity; 10 nM enzyme pre-incubated 15 min with derivative, unwinding at 30° C. for 60 min; read-out: IC50", "source_text": "as §1, §2, §3, §4, §5", "units": {"IC50": "nM"}, "values": [{"compound": "COc1cccc2c1C(=O)c1c(O)c3c(c(O)c1C2=O)CC(O)(C(C)=O)CC3OC1CC(N=CN2CCc3ccccc32)C(O)C(C)O1", "note": "(stereo not shown) [Derivative 78]", "IC50": 450}, {"compound": "COc1cccc2c1C(=O)c1c(O)c3c(c(O)c1C2=O)CC(O)(C(=O)CO)CC3OC1CC(N=CN2CCCCC2)C(O)C(C)O1", "note": "(stereo not shown) [Derivative 109]", "IC50": 760}, {"compound": "COc1cccc2c1C(=O)c1c(O)c3c(c(O)c1C2=O)CC(O)(C(=O)CO)CC3OC1CC(N=CN2CCOCC2)C(O)C(C)O1", "note": "(stereo not shown) [Derivative 37]", "IC50": 2120}, {"compound": "COc1cccc2c1C(=O)c1c(O)c3c(c(O)c1C2=O)CC(O)(C(=O)CO)CC3OC1CC(N=C(C)N2CCCCC2)C(O)C(C)O1", "note": "(stereo not shown) [Derivative 56]", "IC50": 3350}, {"compound": "COc1cccc2c1C(=O)c1c(O)c3c(c(O)c1C2=O)CC(O)(C(C)=O)CC3OC1CC(N=CN2CCN(C)CC2)C(O)C(C)O1", "note": "(stereo not shown) [Derivative 8]", "IC50": 1960}, {"compound": "COc1cccc2c1C(=O)c1c(O)c3c(c(O)c1C2=O)CC(O)(C(=O)CO)CC3OC1CC(N=C(C)N2CCN(C)CC2)C(O)C(C)O1", "note": "(stereo not shown) [Derivative 59]", "IC50": 420}, {"compound": "COc1cccc2c1C(=O)c1c(O)c3c(c(O)c1C2=O)CC(O)(C(C)=O)CC3OC1CC(N=C(C)N2CCN(C)CC2)C(O)C(C)O1", "note": "(stereo not shown) [Derivative 25]", "IC50": 6250}, {"compound": "COc1cccc2c1C(=O)c1c(O)c3c(c(O)c1C2=O)CC(O)(C(=O)CO)CC3OC1CC(N=CN2CCCCCC2)C(O)C(C)O1", "note": "(stereo not shown) [Derivative 41]", "IC50": 1610}, {"compound": "CCN(C=NC1CC(OC2CC(O)(C(C)=O)Cc3c(O)c4c(c(O)c32)C(=O)c2c(OC)cccc2C4=O)OC(C)C1O)CC", "note": "(stereo not shown) [Derivative 12]", "IC50": 1580}, {"compound": "COc1cccc2c1C(=O)c1c(O)c3c(c(O)c1C2=O)CC(O)(C(C)=O)CC3OC1CC(N=CN2CCOCC2)C(O)C(C)O1", "note": "(stereo not shown) [Derivative 71]", "IC50": 3130}, {"compound": "COc1cccc2c1C(=O)c1c(O)c3c(c(O)c1C2=O)CC(O)(C(=O)CO)CC3OC1CC(N=C(C)N2CCCC2)C(O)C(C)O1", "note": "(stereo not shown) [Derivative 52]", "IC50": 500}, {"compound": "CCN(CC)C(C)=NC1CC(OC2CC(O)(C(=O)CO)Cc3c(O)c4c(c(O)c32)C(=O)c2c(OC)cccc2C4=O)OC(C)C1O", "note": "(stereo not shown) [Derivative 135]", "IC50": 1240}, {"compound": "COc1cccc2c1C(=O)c1c(O)c3c(c(O)c1C2=O)CC(O)(C(C)=O)CC3OC1CC(N=C(C)N2CCc3ccccc32)C(O)C(C)O1", "note": "(stereo not shown) [Derivative 27]", "IC50": 11300}, {"compound": "CCCCN(C=NC1CC(OC2CC(O)(C(C)=O)Cc3c(O)c4c(c(O)c32)C(=O)c2c(OC)cccc2C4=O)OC(C)C1O)CCCC", "note": "(stereo not shown) [Derivative 84]", "IC50": 2050}, {"compound": "COc1cccc2c1C(=O)c1c(O)c3c(c(O)c1C2=O)CC(O)(C(C)=O)CC3OC1CC(N=CN2CCOCC2)C(O)C(C)O1", "note": "(stereo not shown) [Derivative 3]", "IC50": 3170}, {"compound": "COc1cccc2c1C(=O)c1c(O)c3c(c(O)c1C2=O)CC(O)(C(=O)CO)CC3OC1CC(N=CN2CCCCCC2)C(O)C(C)O1", "note": "(stereo not shown) [Derivative 111]", "IC50": 1720}, {"compound": "COc1cccc2c1C(=O)c1c(O)c3c(c(O)c1C2=O)CC(O)(C(C)=O)CC3OC1CC(N=CN2CCN(C)CC2)C(O)C(C)O1", "note": "(stereo not shown) [Derivative 77]", "IC50": "780 ± 180"}, {"compound": "COc1cccc2c1C(=O)c1c(O)c3c(c(O)c1C2=O)CC(O)(C(=O)CO)CC3OC1CC(N=CN2CCN(C)CC2)C(O)C(C)O1", "note": "(stereo not shown) [Derivative 42]", "IC50": 980}, {"compound": "COc1cccc2c1C(=O)c1c(O)c3c(c(O)c1C2=O)CC(O)(C(=O)CO)CC3OC1CC(N=CN2CCc3ccccc32)C(O)C(C)O1", "note": "(stereo not shown) [Derivative 114]", "IC50": 140}, {"compound": "CCN(C=NC1CC(OC2CC(O)(C(=O)CO)Cc3c(O)c4c(c(O)c32)C(=O)c2c(OC)cccc2C4=O)OC(C)C1O)CC", "note": "(stereo not shown) [Derivative 116]", "IC50": 2170}, {"compound": "CCCN(CCC)C(C)=NC1CC(OC2CC(O)(C(C)=O)Cc3c(O)c4c(c(O)c32)C(=O)c2c(OC)cccc2C4=O)OC(C)C1O", "note": "(stereo not shown) [Derivative 100]", "IC50": 1900}, {"compound": "COc1cccc2c1C(=O)c1c(O)c3c(c(O)c1C2=O)CC(O)(C(C)=O)CC3OC1CC(N=C(C)N2CCCCC2)C(O)C(C)O1", "note": "(stereo not shown) [Derivative 91]", "IC50": 30}, {"compound": "COc1cccc2c1C(=O)c1c(O)c3c(c(O)c1C2=O)CC(O)(C(=O)CO)CC3OC1CC(N=CN2CCCCC2)C(O)C(C)O1", "note": "(stereo not shown) [Derivative 39]", "IC50": 2840}, {"compound": "COc1cccc2c1C(=O)c1c(O)c3c(c(O)c1C2=O)CC(O)(C(C)=O)CC3OC1CC(N=C(C)N2CCOCC2)C(O)C(C)O1", "note": "(stereo not shown) [Derivative 89]", "IC50": 50}, {"compound": "COc1cccc2c1C(=O)c1c(O)c3c(c(O)c1C2=O)CC(O)(C(C)=O)CC3OC1CC(N=CN2CCN(C)CC2)C(O)C(C)O1", "note": "(stereo not shown) [Derivative 76]", "IC50": "760 ± 210"}, {"compound": "COc1cccc2c1C(=O)c1c(O)c3c(c(O)c1C2=O)CC(O)(C(C)=O)CC3OC1CC(N=C(C)N2CCN(C)CC2)C(O)C(C)O1", "note": "(stereo not shown) [Derivative 95]", "IC50": "90 ± 10"}, {"compound": "CCN(C=NC1CC(OC2CC(O)(C(C)=O)Cc3c(O)c4c(c(O)c32)C(=O)c2c(OC)cccc2C4=O)OC(C)C1O)CC", "note": "(stereo not shown) [Derivative 80]", "IC50": 300}, {"compound": "COc1cccc2c1C(=O)c1c(O)c3c(c(O)c1C2=O)CC(O)(C(=O)CO)CC3OC1CC(N=CN(C)C(C)c2ccccc2)C(O)C(C)O1", "note": "(stereo not shown) [Derivative 122]", "IC50": 2530}, {"compound": "COc1cccc2c1C(=O)c1c(O)c3c(c(O)c1C2=O)CC(O)(C(=O)CO)CC3OC1CC(N=C(C)N2CCN(C)CC2)C(O)C(C)O1", "note": "(stereo not shown) [Derivative 131]", "IC50": 130}, {"compound": "COc1cccc2c1C(=O)c1c(O)c3c(c(O)c1C2=O)CC(O)(C(C)=O)CC3OC1CC(N=CN2CCCCC2)C(O)C(C)O1", "note": "(stereo not shown) [Derivative 73]", "IC50": 2390}, {"compound": "COc1cccc2c1C(=O)c1c(O)c3c(c(O)c1C2=O)CC(O)(C(C)=O)CC3OC1CC(N=CN2CCCC2)C(O)C(C)O1", "note": "(stereo not shown) [Derivative 1]", "IC50": 1840}, {"compound": "COc1cccc2c1C(=O)c1c(O)c3c(c(O)c1C2=O)CC(O)(C(C)=O)CC3OC1CC(N=CN2CCCC2)C(O)C(C)O1", "note": "(stereo not shown) [Derivative 69]", "IC50": 1080}, {"compound": "COc1cccc2c1C(=O)c1c(O)c3c(c(O)c1C2=O)CC(O)(C(=O)CO)CC3OC1CC(N=C(C)N2CCCCC2)C(O)C(C)O1", "note": "(stereo not shown) [Derivative 127]", "IC50": 220}, {"compound": "COc1cccc2c1C(=O)c1c(O)c3c(c(O)c1C2=O)CC(O)(C(C)=O)CC3OC1CC(N=C(C)N2CCCC2)C(O)C(C)O1", "note": "(stereo not shown) [Derivative 18]", "IC50": 410}, {"compound": "COc1cccc2c1C(=O)c1c(O)c3c(c(O)c1C2=O)CC(O)(C(C)=O)CC3OC1CC(N=CN2CCCCCC2)C(O)C(C)O1", "note": "(stereo not shown) [Derivative 7]", "IC50": 1330}, {"compound": "COc1cccc2c1C(=O)c1c(O)c3c(c(O)c1C2=O)CC(O)(C(=O)CO)CC3OC1CC(N=CN2CCCC2)C(O)C(C)O1", "note": "(stereo not shown) [Derivative 35]", "IC50": 550}, {"compound": "COc1cccc2c1C(=O)c1c(O)c3c(c(O)c1C2=O)CC(O)(C(=O)CO)CC3OC1CC(N=CN2CCOCC2)C(O)C(C)O1", "note": "(stereo not shown) [Derivative 107]", "IC50": 970}, {"compound": "CCCN(C=NC1CC(OC2CC(O)(C(=O)CO)Cc3c(O)c4c(c(O)c32)C(=O)c2c(OC)cccc2C4=O)OC(C)C1O)CCC", "note": "(stereo not shown) [Derivative 118]", "IC50": 2210}, {"compound": "COc1cccc2c1C(=O)c1c(O)c3c(c(O)c1C2=O)CC(O)(C(C)=O)CC3OC1CC(N=C(C)N2CCCCC2)C(O)C(C)O1", "note": "(stereo not shown) [Derivative 22]", "IC50": 700}, {"compound": "CCN(C=NC1CC(OC2CC(O)(C(=O)CO)Cc3c(O)c4c(c(O)c32)C(=O)c2c(OC)cccc2C4=O)OC(C)C1O)CC", "note": "(stereo not shown) [Derivative 46]", "IC50": 1320}, {"compound": "CCN(CC)C(C)=NC1CC(OC2CC(O)(C(C)=O)Cc3c(O)c4c(c(O)c32)C(=O)c2c(OC)cccc2C4=O)OC(C)C1O", "note": "(stereo not shown) [Derivative 98]", "IC50": 180}, {"compound": "COc1cccc2c1C(=O)c1c(O)c3c(c(O)c1C2=O)CC(O)(C(=O)CO)CC3OC1CC(N=C(C)N2CCCC2)C(O)C(C)O1", "note": "(stereo not shown) [Derivative 123]", "IC50": 310}, {"compound": "COc1cccc2c1C(=O)c1c(O)c3c(c(O)c1C2=O)CC(O)(C(=O)CO)CC3OC1CC(N=CN2CCN(C)CC2)C(O)C(C)O1", "note": "(stereo not shown) [Derivative 112]", "IC50": 1530}, {"compound": "COc1cccc2c1C(=O)c1c(O)c3c(c(O)c1C2=O)CC(O)(C(C)=O)CC3OC1CC(N=C(C)N2CCCCCC2)C(O)C(C)O1", "note": "(stereo not shown) [Derivative 93]", "IC50": 990}, {"compound": "COc1cccc2c1C(=O)c1c(O)c3c(c(O)c1C2=O)CC(O)(C(C)=O)CC3OC1CC(N=CN2CCCCC2)C(O)C(C)O1", "note": "(stereo not shown) [Derivative 5]", "IC50": 3500}]}]}
